Columns and labels:
Assay in all cases: radiometric filter-binding kinase assay
IKBKB (human) = IKBKB (human) (UniProt O14920); conditions: compound 1.0 µM
EPHB4 (human) = EPHB4 (human) (UniProt P54760)
RPS6KA5 KD1 KD2 (human) = RPS6KA5 KD1 KD2 (human) (UniProt O75582)
NTRK1 (human) = NTRK1 (human) (UniProt P04629); conditions: compound 10.0 µM
STK16 (human) = STK16 (human) (UniProt O75716)
PRKAA1 or PRKAA2 (rat) = conditions: compound 1.0 µM; accession and sequence are those of the human protein
SRC (human) = SRC (human) (UniProt P12931)
MAPKAPK5 (human) = MAPKAPK5 (human) (UniProt Q8IW41)
MAPK15 (human) = MAPK15 (human) (UniProt Q8TD08)
EPHA4 (human) = EPHA4 (human) (UniProt P54764)
EPHB1 (human) = EPHB1 (human) (UniProt P54762)
CaMK1 (human) = CaMK1 (human) (UniProt Q14012)
SYK (human) = SYK (human) (UniProt P43405)
JAK2 JH1 JH2 (human) = JAK2 JH1 JH2 (human) (UniProt O60674); conditions: compound 1.0 µM
PRKCZ (human) = PRKCZ (human) (UniProt Q05513)
ROCK2 (rat) = conditions: accession and sequence are those of the human protein
MAPK13 (human) = MAPK13 (human) (UniProt O15264)
MAP2K1 (human) = MAP2K1 (human) (UniProt Q02750)
TBK1 (human) = TBK1 (human) (UniProt Q9UHD2)
STK11 (human) = STK11 (human) (UniProt Q15831)
HIPK3 (human) = HIPK3 (human) (UniProt Q9H422); conditions: compound 1.0 µM
RIPK2 (human) = RIPK2 (human) (UniProt O43353); conditions: compound 1.0 µM
TEK (human) = TEK (human) (UniProt Q02763)
TESK1 (human) = TESK1 (human) (UniProt Q15569)
MAPK14 (human) = MAPK14 (human) (UniProt Q16539)
FLT1 (human) = FLT1 (human) (UniProt P17948); conditions: compound 1.0 µM
ERBB4 (human) = ERBB4 (human) (UniProt Q15303)
CLK2 (human) = CLK2 (human) (UniProt P49760)
MARK2 (human) = MARK2 (human) (UniProt Q7KZI7)
IRAK1 (human) = IRAK1 (human) (UniProt P51617)
IGF1R (human) = IGF1R (human) (UniProt P08069)
CAMKK2 (human) = CAMKK2 (human) (UniProt Q96RR4)
NEK6 (human) = NEK6 (human) (UniProt Q9HC98)

Sequence of PRKCZ (human) (Q05513 whole entry, looked up): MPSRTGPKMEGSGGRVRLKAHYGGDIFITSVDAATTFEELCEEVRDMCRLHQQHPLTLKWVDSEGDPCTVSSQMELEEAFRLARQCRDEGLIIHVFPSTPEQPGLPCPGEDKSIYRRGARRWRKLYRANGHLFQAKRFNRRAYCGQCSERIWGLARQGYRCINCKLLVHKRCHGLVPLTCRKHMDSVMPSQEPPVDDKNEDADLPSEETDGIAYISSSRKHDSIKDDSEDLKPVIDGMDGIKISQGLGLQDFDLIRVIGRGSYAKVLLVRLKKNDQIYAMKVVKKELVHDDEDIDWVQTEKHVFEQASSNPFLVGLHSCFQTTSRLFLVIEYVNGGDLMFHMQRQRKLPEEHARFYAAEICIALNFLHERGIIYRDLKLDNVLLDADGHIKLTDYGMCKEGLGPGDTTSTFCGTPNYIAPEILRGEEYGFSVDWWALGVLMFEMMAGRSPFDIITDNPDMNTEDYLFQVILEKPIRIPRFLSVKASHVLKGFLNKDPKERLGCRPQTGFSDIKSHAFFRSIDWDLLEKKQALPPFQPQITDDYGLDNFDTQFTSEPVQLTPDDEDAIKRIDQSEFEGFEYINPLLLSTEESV
Sequence of EPHA4 (human) (P54764 whole entry, looked up): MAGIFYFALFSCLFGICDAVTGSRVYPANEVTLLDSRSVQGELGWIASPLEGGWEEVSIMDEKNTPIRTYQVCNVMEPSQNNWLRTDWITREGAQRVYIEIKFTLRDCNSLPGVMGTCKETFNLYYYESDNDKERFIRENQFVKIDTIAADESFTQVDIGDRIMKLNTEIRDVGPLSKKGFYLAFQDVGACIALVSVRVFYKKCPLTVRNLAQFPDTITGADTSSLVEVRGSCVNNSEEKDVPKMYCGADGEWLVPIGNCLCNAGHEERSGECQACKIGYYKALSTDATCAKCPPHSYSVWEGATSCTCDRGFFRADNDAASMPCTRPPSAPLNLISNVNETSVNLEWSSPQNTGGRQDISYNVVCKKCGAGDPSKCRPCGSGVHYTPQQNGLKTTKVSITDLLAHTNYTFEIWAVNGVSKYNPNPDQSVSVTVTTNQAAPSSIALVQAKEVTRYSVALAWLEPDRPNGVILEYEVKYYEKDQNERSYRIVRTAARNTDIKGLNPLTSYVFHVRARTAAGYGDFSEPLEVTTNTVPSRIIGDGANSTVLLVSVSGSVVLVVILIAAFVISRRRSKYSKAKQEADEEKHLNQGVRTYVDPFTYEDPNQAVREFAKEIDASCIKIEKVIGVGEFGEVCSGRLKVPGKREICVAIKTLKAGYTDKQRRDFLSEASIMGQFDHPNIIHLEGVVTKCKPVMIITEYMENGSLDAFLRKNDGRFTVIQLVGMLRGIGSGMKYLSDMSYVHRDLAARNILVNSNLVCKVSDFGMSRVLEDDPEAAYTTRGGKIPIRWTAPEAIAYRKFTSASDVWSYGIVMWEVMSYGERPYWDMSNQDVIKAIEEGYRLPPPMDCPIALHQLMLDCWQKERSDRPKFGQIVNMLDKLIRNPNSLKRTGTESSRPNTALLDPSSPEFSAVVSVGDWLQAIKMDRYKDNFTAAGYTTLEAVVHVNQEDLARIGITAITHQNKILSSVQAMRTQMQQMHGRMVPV
Sequence of IGF1R (human) (P08069 whole entry, looked up): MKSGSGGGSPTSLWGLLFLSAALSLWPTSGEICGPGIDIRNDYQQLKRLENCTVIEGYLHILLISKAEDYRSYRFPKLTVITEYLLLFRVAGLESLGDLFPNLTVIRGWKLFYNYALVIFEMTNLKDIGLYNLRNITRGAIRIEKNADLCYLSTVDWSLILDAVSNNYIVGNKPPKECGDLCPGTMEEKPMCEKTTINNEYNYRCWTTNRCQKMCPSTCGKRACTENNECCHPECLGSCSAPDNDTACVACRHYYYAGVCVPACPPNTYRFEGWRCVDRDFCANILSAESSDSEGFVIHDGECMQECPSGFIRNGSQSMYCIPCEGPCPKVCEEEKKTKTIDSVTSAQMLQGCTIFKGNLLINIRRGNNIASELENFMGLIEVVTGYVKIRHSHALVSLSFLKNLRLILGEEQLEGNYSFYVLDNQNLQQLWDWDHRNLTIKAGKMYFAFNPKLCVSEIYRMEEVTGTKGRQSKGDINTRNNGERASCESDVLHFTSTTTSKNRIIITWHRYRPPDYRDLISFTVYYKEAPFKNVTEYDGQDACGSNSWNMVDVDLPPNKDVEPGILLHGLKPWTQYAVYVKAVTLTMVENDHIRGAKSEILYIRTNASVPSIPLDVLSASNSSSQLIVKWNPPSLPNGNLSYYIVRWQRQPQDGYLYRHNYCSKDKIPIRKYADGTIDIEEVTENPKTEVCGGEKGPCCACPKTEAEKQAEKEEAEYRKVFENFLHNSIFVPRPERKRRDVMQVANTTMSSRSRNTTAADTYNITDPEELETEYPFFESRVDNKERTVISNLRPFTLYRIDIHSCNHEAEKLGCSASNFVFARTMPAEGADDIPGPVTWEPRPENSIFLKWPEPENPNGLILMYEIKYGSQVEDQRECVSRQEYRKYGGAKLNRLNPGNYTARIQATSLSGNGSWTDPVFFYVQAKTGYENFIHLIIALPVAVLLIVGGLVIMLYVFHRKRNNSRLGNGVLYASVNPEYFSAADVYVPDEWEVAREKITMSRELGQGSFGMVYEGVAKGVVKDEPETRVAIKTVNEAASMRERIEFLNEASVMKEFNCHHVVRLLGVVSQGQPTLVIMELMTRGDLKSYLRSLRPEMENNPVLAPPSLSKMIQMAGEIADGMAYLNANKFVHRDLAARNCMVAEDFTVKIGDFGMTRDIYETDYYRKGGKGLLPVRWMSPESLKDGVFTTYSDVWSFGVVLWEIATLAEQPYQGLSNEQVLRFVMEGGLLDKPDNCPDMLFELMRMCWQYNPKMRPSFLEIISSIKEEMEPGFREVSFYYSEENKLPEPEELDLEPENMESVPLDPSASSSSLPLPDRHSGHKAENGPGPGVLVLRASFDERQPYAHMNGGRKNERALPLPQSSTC
Sequence of MAPK15 (human) (Q8TD08 whole entry, looked up): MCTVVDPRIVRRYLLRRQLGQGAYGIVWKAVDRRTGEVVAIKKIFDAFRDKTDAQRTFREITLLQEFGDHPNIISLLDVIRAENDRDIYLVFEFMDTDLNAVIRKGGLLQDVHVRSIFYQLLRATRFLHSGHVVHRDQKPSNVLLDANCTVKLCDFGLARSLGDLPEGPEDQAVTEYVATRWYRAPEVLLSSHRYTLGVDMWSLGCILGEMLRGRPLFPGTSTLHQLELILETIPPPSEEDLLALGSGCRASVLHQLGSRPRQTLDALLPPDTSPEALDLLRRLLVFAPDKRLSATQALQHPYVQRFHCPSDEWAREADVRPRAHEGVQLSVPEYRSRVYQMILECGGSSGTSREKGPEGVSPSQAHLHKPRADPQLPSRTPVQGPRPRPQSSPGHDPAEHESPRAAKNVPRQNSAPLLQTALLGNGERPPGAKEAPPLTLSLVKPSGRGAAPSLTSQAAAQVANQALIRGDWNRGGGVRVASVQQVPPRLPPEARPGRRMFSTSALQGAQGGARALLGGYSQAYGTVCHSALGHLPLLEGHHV
Sequence of MAP2K1 (human) (Q02750 whole entry, looked up): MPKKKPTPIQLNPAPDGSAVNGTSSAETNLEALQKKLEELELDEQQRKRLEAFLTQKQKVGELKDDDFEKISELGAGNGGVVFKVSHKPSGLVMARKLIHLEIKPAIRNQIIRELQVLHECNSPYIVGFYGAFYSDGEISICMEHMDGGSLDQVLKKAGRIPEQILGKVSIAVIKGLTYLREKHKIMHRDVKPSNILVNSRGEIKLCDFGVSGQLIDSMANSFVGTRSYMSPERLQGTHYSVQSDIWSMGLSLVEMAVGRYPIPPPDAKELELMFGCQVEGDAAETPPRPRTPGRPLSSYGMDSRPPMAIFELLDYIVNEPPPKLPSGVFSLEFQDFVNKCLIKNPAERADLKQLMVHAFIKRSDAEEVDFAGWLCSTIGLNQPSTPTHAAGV
Sequence of CLK2 (human) (P49760 whole entry, looked up): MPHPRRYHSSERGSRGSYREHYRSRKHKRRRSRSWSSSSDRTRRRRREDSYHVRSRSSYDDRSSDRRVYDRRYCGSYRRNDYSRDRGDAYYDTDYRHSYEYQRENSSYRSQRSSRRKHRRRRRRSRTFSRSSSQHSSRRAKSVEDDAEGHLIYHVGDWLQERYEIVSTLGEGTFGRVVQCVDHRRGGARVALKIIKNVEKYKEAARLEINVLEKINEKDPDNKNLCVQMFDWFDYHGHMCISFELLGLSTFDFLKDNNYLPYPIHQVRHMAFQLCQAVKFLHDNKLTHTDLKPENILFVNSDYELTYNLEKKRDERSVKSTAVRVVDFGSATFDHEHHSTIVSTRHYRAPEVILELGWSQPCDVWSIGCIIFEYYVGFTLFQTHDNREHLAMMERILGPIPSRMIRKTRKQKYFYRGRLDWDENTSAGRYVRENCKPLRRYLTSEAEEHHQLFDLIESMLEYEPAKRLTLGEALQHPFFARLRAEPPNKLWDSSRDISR
Sequence of CAMKK2 (human) (Q96RR4 whole entry, looked up): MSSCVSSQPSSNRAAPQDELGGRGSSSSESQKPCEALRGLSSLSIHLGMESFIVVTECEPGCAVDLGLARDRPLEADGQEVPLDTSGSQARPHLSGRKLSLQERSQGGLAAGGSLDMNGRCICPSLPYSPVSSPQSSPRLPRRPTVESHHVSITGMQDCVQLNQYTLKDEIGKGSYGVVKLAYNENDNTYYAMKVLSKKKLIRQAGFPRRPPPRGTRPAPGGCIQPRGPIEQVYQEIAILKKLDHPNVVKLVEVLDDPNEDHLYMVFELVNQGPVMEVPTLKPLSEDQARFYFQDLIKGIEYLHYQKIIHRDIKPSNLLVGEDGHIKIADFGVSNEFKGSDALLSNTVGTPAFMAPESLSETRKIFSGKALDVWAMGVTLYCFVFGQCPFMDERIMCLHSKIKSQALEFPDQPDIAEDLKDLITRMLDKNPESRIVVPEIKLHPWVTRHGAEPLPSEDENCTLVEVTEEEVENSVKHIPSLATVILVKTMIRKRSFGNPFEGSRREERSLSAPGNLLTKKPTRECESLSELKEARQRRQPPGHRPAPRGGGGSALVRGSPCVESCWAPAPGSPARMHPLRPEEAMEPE

Which results are given for `CNc1nc(Nc2ccc(C(=O)N3CCOCC3)cc2OC)ncc1Cl`?
residual activity (IKBKB (human)): 82%; residual activity (EPHB4 (human); compound 1.0 µM): 94%; residual activity (EPHB4 (human); compound 10.0 µM): 113%; residual activity (RPS6KA5 KD1 KD2 (human); compound 1.0 µM): 104%; residual activity (RPS6KA5 KD1 KD2 (human); compound 10.0 µM): 84%; residual activity (NTRK1 (human)): 87%; residual activity (STK16 (human); compound 1.0 µM): 100%; residual activity (STK16 (human); compound 10.0 µM): 97%; residual activity (PRKAA1 or PRKAA2 (rat)): 89%; residual activity (SRC (human); compound 1.0 µM): 84%; residual activity (SRC (human); compound 10.0 µM): 79%; residual activity (MAPKAPK5 (human); compound 1.0 µM): 91%; residual activity (MAPKAPK5 (human); compound 10.0 µM): 44%; residual activity (MAPK15 (human); compound 1.0 µM): 74%; residual activity (MAPK15 (human); compound 10.0 µM): 82%; residual activity (EPHA4 (human); compound 1.0 µM): 100%; residual activity (EPHA4 (human); compound 10.0 µM): 94%; residual activity (EPHB1 (human); compound 1.0 µM): 115%; residual activity (EPHB1 (human); compound 10.0 µM): 86%; residual activity (CaMK1 (human); compound 1.0 µM): 85%; residual activity (CaMK1 (human); compound 10.0 µM): 66%; residual activity (SYK (human); compound 1.0 µM): 68%; residual activity (SYK (human); compound 10.0 µM): 85%; residual activity (JAK2 JH1 JH2 (human)): 83%; residual activity (PRKCZ (human); compound 1.0 µM): 99%; residual activity (PRKCZ (human); compound 10.0 µM): 101%; residual activity (ROCK2 (rat); compound 1.0 µM): 87%; residual activity (ROCK2 (rat); compound 10.0 µM): 71%; residual activity (MAPK13 (human); compound 1.0 µM): 87%; residual activity (MAPK13 (human); compound 10.0 µM): 86%; residual activity (MAP2K1 (human); compound 1.0 µM): 106%; residual activity (MAP2K1 (human); compound 10.0 µM): 93%; residual activity (TBK1 (human); compound 1.0 µM): 86%; residual activity (TBK1 (human); compound 10.0 µM): 42%; residual activity (STK11 (human); compound 1.0 µM): 92%; residual activity (STK11 (human); compound 10.0 µM): 90%; residual activity (HIPK3 (human)): 85%; residual activity (RIPK2 (human)): 79%; residual activity (TEK (human); compound 1.0 µM): 79%; residual activity (TEK (human); compound 10.0 µM): 90%; residual activity (TESK1 (human); compound 1.0 µM): 90%; residual activity (TESK1 (human); compound 10.0 µM): 83%; residual activity (MAPK14 (human); compound 1.0 µM): 71%; residual activity (MAPK14 (human); compound 10.0 µM): 93%; residual activity (FLT1 (human)): 65%; residual activity (ERBB4 (human); compound 1.0 µM): 89%; residual activity (ERBB4 (human); compound 10.0 µM): 94%; residual activity (CLK2 (human); compound 1.0 µM): 91%; residual activity (CLK2 (human); compound 10.0 µM): 76%; residual activity (MARK2 (human); compound 1.0 µM): 85%; residual activity (MARK2 (human); compound 10.0 µM): 90%; residual activity (IRAK1 (human); compound 1.0 µM): 84%; residual activity (IRAK1 (human); compound 10.0 µM): 83%; residual activity (IGF1R (human); compound 1.0 µM): 100%; residual activity (IGF1R (human); compound 10.0 µM): 51%; residual activity (CAMKK2 (human); compound 1.0 µM): 52%; residual activity (CAMKK2 (human); compound 10.0 µM): 31%; residual activity (NEK6 (human); compound 1.0 µM): 73%; residual activity (NEK6 (human); compound 10.0 µM): 69%
